66 substances from patent publication US11541107B2, “Peptides and T cells for use in immunotherapeutic treatment of various cancers” (Immatics Biotechnologies GmbH, priority 2015, dated 2023) can be followed below.

The subject of the assay is HLA-A*24. Put plainly: MHC binding assay, UV-ligand exchange with beta2m ELISA, HLA-A*24. Also on record: species or system human. To be noted: binding to HLA-A*24 ranged by peptide exchange yield (UV-ligand exchange, beta2m ELISA). The text has this: Candidate peptides for T cell based therapies according to the present invention were further tested for their MHC binding capacity (affinity). The individual peptide-MHC complexes were produced by UV-ligand exchange, where a UV-sensitive peptide is cleaved upon UV-irradiation, and exchanged with the peptide of interest as analyzed. Only peptide candidates that can effectively bind and stabilize the peptide-receptive MHC molecules prevent dissociation of the MHC complexes. To determine the yield of the exchange reaction, an ELISA was performed based on the detection of the light chain (ß2 m) of stabilized MHC complexes. The assay was performed as generally described in Rodenko et al. (Rodenko et al., 2006).
96 well MAXISorp plates (NUNC) were coated over night with 2 ug/ml streptavidin in PBS at room temperature, washed 4× and blocked for 1 h at 37° C. in 2% BSA containing blocking buffer. […] Peptide-MHC monomers of the UV-exchange reaction were diluted 100 fold in blocking buffer. Samples were incubated for 1 h at 37° C., washed four times, incubated with 2 ug/ml HRP conjugated anti-β2 m for 1h at 37° C., washed again and detected with TMB solution that is stopped with […]. Absorption was measured at 450 nm. Candidate peptides that show a high exchange yield (preferably higher than 50%, most preferred higher than 75%) are generally preferred for a generation and production of antibodies or fragments thereof, and/or T cell receptors or fragments thereof, as they show sufficient avidity to the MHC molecules and prevent dissociation of the MHC complexes.

Regarding “375 (KYTDYILKI; listed as Homo sapiens) [compound 375]”, the Peptide exchange result was “+++ (50%-75% = +++)”.
Then “138 (VYNAVSTSF; listed as Homo sapiens) [compound 138]”, with “++ (20%-49% = ++)”.
The result for “280 (TYNPNLQDKL; listed as Homo sapiens) [compound 280]” reads “++++ (>=75% = ++++)”; that for “112 (IYNFVESKL; listed as Homo sapiens) [compound 112]”, “+++ (50%-75% = +++)”; that for “343 (NYLGGTSTI; listed as Homo sapiens) [compound 343]”, “+++ (50%-75% = +++)”.
Then “185 (QYLVHVNDL; listed as Homo sapiens) [compound 185]”, with “++++ (>=75% = ++++)”; and “210 (IYAGVGEFSF; listed as Homo sapiens) [compound 210]”, with “++++ (>=75% = ++++)”; and “171 (NYEDHFPLL; listed as Homo sapiens) [compound 171]”, with “+++ (50%-75% = +++)”.
Consider “195 (AYIKGGWIL; listed as Homo sapiens) [compound 195]”, for which the Peptide exchange result was “+++ (50%-75% = +++)”.
In the case of “136 (IYPEWPVVFF; listed as Homo sapiens) [compound 136]”, the Peptide exchange entry is given as “+++ (50%-75% = +++)”.
Then “367 (LYQDHMQYI; listed as Homo sapiens) [compound 367]”, with “++ (20%-49% = ++)”; and “357 (QFITSTNTF; listed as Homo sapiens) [compound 357]”, with “++++ (>=75% = ++++)”; and “249 (RYHPTTCTI; listed as Homo sapiens) [compound 249]”, with “++++ (>=75% = ++++)”.
Take “99 (QYILAVPVL; listed as Homo sapiens) [compound 99]”: the Peptide exchange result is “++++ (>=75% = ++++)”.
Then “369 (VYTHEVVTL; listed as Homo sapiens) [compound 369]”, with “+++ (50%-75% = +++)”; and “307 (GYAFTLPLF; listed as Homo sapiens) [compound 307]”, with “+++ (50%-75% = +++)”.
As for “237 (KYVGQLAVL; listed as Homo sapiens) [compound 237]”, the Peptide exchange result is “+++ (50%-75% = +++)”.
For the substance “268 (IFITKALQI; listed as Homo sapiens) [compound 268]”, the Peptide exchange entry was “++ (20%-49% = ++)”.
With “146 (NYYERIHAL; listed as Homo sapiens) [compound 146]”, the Peptide exchange entry was “+++ (50%-75% = +++)”.
Then “144 (VFASLPGFLF; listed as Homo sapiens) [compound 144]”, with “++++ (>=75% = ++++)”; and “299 (KYQYVLNEF; listed as Homo sapiens) [compound 299]”, with “+++ (50%-75% = +++)”.
Then “294 (RFPVQGTVTF; listed as Homo sapiens) [compound 294]”, with “+++ (50%-75% = +++)”; and “134 (AYIPTPIYF; listed as Homo sapiens) [compound 134]”, with “+++ (50%-75% = +++)”.
The result for “286 (SYGTILSHI; listed as Homo sapiens) [compound 286]” reads “++++ (>=75% = ++++)”; that for “387 (KYTEKLEEI; listed as Homo sapiens) [compound 387]”, “+++ (50%-75% = +++)”.
On to “255 (VYQKIILKF; listed as Homo sapiens) [compound 255]”, for which the Peptide exchange entry is given as “+++ (50%-75% = +++)”.
Then “122 (EYQARIPEF; listed as Homo sapiens) [compound 122]”, with “+++ (50%-75% = +++)”; and “188 (GYKTFFNEF; listed as Homo sapiens) [compound 188]”, with “+++ (50%-75% = +++)”; and “266 (KYTDWTEFL; listed as Homo sapiens) [compound 266]”, with “+++ (50%-75% = +++)”.
The result for “349 (QYSIISNVF; listed as Homo sapiens) [compound 349]” reads “+++ (50%-75% = +++)”; that for “302 (LYLPVHYGF; listed as Homo sapiens) [compound 302]”, “+++ (50%-75% = +++)”.
Then “279 (VWLPASVLF; listed as Homo sapiens) [compound 279]”, with “+++ (50%-75% = +++)”; and “148 (SYGTVSQIF; listed as Homo sapiens) [compound 148]”, with “++++ (>=75% = ++++)”.
“309 (KYYRQTLLF; listed as Homo sapiens) [compound 309]”: the Peptide exchange entry was “++ (20%-49% = ++)”.
Then “202 (RYVEGIVSL; listed as Homo sapiens) [compound 202]”, with “+++ (50%-75% = +++)”; and “370 (RFIGIPNQF; listed as Homo sapiens) [compound 370]”, with “+++ (50%-75% = +++)”.
Then “284 (DYLKDPVTI; listed as Homo sapiens) [compound 284]”, with “+++ (50%-75% = +++)”.
On to “149 (SYGTVSQI; listed as Homo sapiens) [compound 149]”, for which the Peptide exchange entry is on record as “++++ (>=75% = ++++)”.
As to “267 (SFLNIEKTEILF; listed as Homo sapiens) [compound 267]”, the Peptide exchange result is reported as “++ (20%-49% = ++)”.
The result for “198 (DYVGFTLKI; listed as Homo sapiens) [compound 198]” reads “++ (20%-49% = ++)”.
With “303 (LYSVIKEDF; listed as Homo sapiens) [compound 303]”, the Peptide exchange entry is given as “+++ (50%-75% = +++)”.
“348 (IYLEHTESI; listed as Homo sapiens) [compound 348]”: the Peptide exchange entry is “+++ (50%-75% = +++)”.
The result for “289 (FFHEGQYVF; listed as Homo sapiens) [compound 289]” reads “++++ (>=75% = ++++)”.
Take “312 (SYTSVLSRL; listed as Homo sapiens) [compound 312]”: the Peptide exchange entry was “+++ (50%-75% = +++)”.
Then “165 (EYFTPLLSGQF; listed as Homo sapiens) [compound 165]”, with “+++ (50%-75% = +++)”; and “229 (IYQFVADSF; listed as Homo sapiens) [compound 229]”, with “+++ (50%-75% = +++)”; and “225 (TYTNTLERL; listed as Homo sapiens) [compound 225]”, with “+++ (50%-75% = +++)”.
Then “272 (RYVFPLPYL; listed as Homo sapiens) [compound 272]”, with “++++ (>=75% = ++++)”; and “283 (EYQEIFQQL; listed as Homo sapiens) [compound 283]”, with “+++ (50%-75% = +++)”; and “319 (KYSDVKNLI; listed as Homo sapiens) [compound 319]”, with “++++ (>=75% = ++++)”.
The result for “102 (VYPFENFEF; listed as Homo sapiens) [compound 102]” reads “+++ (50%-75% = +++)”.
Regarding “107 (KYFPYLVVI; listed as Homo sapiens) [compound 107]”, the Peptide exchange result is “+++ (50%-75% = +++)”.
The result for “110 (SYPKIIEEF; listed as Homo sapiens) [compound 110]” reads “+++ (50%-75% = +++)”; that for “250 (KYPDIASPTF; listed as Homo sapiens) [compound 250]”, “++ (20%-49% = ++)”.
The result for “311 (EYLQNLNHI; listed as Homo sapiens) [compound 311]” reads “++++ (>=75% = ++++)”.
As to “314 (RYFKGDYSI; listed as Homo sapiens) [compound 314]”, the Peptide exchange entry is listed as “+++ (50%-75% = +++)”.
“246 (KYLSVQLTL; listed as Homo sapiens) [compound 246]”: the Peptide exchange entry was “++ (20%-49% = ++)”.
Then “232 (YYLSDSPLL; listed as Homo sapiens) [compound 232]”, with “+++ (50%-75% = +++)”; and “373 (GYISNGELF; listed as Homo sapiens) [compound 373]”, with “+++ (50%-75% = +++)”.
For the substance “209 (AFIETPIPLF; listed as Homo sapiens) [compound 209]”, the Peptide exchange result is given as “++++ (>=75% = ++++)”.
Consider “214 (KYLMELTLI; listed as Homo sapiens) [compound 214]”, for which the Peptide exchange result is “+++ (50%-75% = +++)”.
The result for “208 (TYLEKIDGF; listed as Homo sapiens) [compound 208]” reads “++++ (>=75% = ++++)”; that for “183 (PYLQDVPRI; listed as Homo sapiens) [compound 183]”, “+++ (50%-75% = +++)”.
The result for “129 (KYIDYLMTW; listed as Homo sapiens) [compound 129]” reads “++++ (>=75% = ++++)”.
On to “196 (GYIRGSWQF; listed as Homo sapiens) [compound 196]”, for which the Peptide exchange result is “++++ (>=75% = ++++)”.
Then “304 (EYNEVANLF; listed as Homo sapiens) [compound 304]”, with “+++ (50%-75% = +++)”.
